Source: patent US12077503B2, “Substituted cyclic amides and their use as herbicides” (FMC CORPORATION, priority 2015, dated 2024)

Experiments:
Type in all cases: in vivo
Kochia (Kochia scoparia) [1] = assay: Test A preemergence; details: for Plant response rating, Kochia: 125 g ai/ha, preemergence, 0 to 100 scale (0 no effect, 100 complete control); for Kochia plant response rating (0 to 100 scale): Preemergence, 500 g ai/ha, 0 is no effect, 100 is complete control
From the text: (§1) Seeds of plant species selected from barnyardgrass (Echinochloa crus-galli), Kochia (Kochia scoparia), ragweed (common ragweed, Ambrosia elatior), ryegrass, Italian (Italian ryegrass, Lolium multiflorum), crabgrass, large (Digitaria sanguinalis), giant foxtail (Setaria faberii), green foxtail (Setaria viridis), morningglory (Ipomoea spp.), pigweed (Amaranthus retroflexus), velvetleaf (Abutilon theophrasti), wheat (Triticum aestivum), and corn (Zea mays) were planted into a blend of loam soil and sand and treated preemergence with a directed soil spray using test chemicals formulated in anon-phytotoxic solvent mixture which included a surfactant.
(§2) At the same time, plants selected from these crop and weed species and also blackgrass (Alopecurus myosuroides), and Galium (catchweed bedstraw, Galium aparine) were planted in pots containing the same blend of loam soil and sand and treated with postemergence applications of test chemicals formulated in the same manner. Plants ranged in height from 2 to 10 cm and were in the one- to two-leaf stage for the postemergence treatment. Treated plants and untreated controls were maintained in a greenhouse for approximately 10 d, after which time all treated plants were compared to untreated controls and visually evaluated for injury. Plant response ratings, summarized in Table A, are based on a 0 to 100 scale where 0 is no effect and 100 is complete control. A dash (-) response means no test result.

[2] = test system: barnyardgrass (Echinochloa crus-galli); assay: Test A preemergence; details: for Plant response rating, Barnyardgrass: 125 g ai/ha, preemergence, 0 to 100 scale (0 no effect, 100 complete control); for Barnyardgrass plant response rating (0 to 100 scale): Preemergence, 500 g ai/ha, 0 is no effect, 100 is complete control
From the text: as §1, §2

[3] = test system: giant foxtail (Setaria faberii); assay: Test A preemergence; details: for Plant response rating, Foxtail, Giant: 125 g ai/ha, preemergence, 0 to 100 scale (0 no effect, 100 complete control); for Foxtail, Giant plant response rating (0 to 100 scale): Preemergence, 500 g ai/ha, 0 is no effect, 100 is complete control
From the text: as §1, §2

[4] = test system: pigweed (Amaranthus retroflexus); assay: Test A preemergence; details: for Plant response rating, Pigweed: 125 g ai/ha, preemergence, 0 to 100 scale (0 no effect, 100 complete control); for Pigweed plant response rating (0 to 100 scale): Preemergence, 500 g ai/ha, 0 is no effect, 100 is complete control
From the text: as §1, §2

[5] = test system: ragweed (common ragweed, Ambrosia elatior); assay: Test A preemergence; details: for Plant response rating, Ragweed: 125 g ai/ha, preemergence, 0 to 100 scale (0 no effect, 100 complete control); for Ragweed plant response rating (0 to 100 scale): Preemergence, 500 g ai/ha, 0 is no effect, 100 is complete control
From the text: as §1, §2

[6] = test system: ryegrass, Italian (Italian ryegrass, Lolium multiflorum); assay: Test A preemergence; details: for Plant response rating, Ryegrass, Italian: 125 g ai/ha, preemergence, 0 to 100 scale (0 no effect, 100 complete control); for Ryegrass, Italian plant response rating (0 to 100 scale): Preemergence, 500 g ai/ha, 0 is no effect, 100 is complete control
From the text: as §1, §2

[7] = test system: Galium (catchweed bedstraw, Galium aparine); assay: Test A postemergence
From the text: as §1, §2

Kochia (Kochia scoparia) [8] = assay: Test A postemergence
From the text: as §1, §2

[9] = test system: barnyardgrass (Echinochloa crus-galli); assay: Test A postemergence
From the text: as §1, §2

[10] = test system: blackgrass (Alopecurus myosuroides); assay: Test A postemergence
From the text: as §1, §2

corn (Zea mays) = assay: Test A postemergence
From the text: as §1, §2

[11] = test system: giant foxtail (Setaria faberii); assay: Test A postemergence
From the text: as §1, §2

[12] = test system: pigweed (Amaranthus retroflexus); assay: Test A postemergence
From the text: as §1, §2

[13] = test system: ragweed (common ragweed, Ambrosia elatior); assay: Test A postemergence
From the text: as §1, §2

[14] = test system: ryegrass, Italian (Italian ryegrass, Lolium multiflorum); assay: Test A postemergence
From the text: as §1, §2

[15] = test system: wheat (Triticum aestivum); assay: Test A postemergence
From the text: as §1, §2

[16] = test system: barnyardgrass (Echinochloa crus-galli); assay: Test B flooded paddy test; details: Flood, 250 g ai/ha; 0 to 100 scale where 0 is no effect and 100 is complete control; 13 to 15 d
Protocol: (§3) Plant species in the flooded paddy test selected from rice (Oryra sativa), sedge, umbrella (small-flower umbrella sedge, Cyperus difformis), ducksalad (Heteranthera limosa), and barnyardgrass (Echinochloa crus-galli) were grown to the 2-leaf stage for testing. At time of treatment, test pots were flooded to 3 cm above the soil surface, treated by application of test compounds directly to the paddy water, and then maintained at that water depth for the duration of the test. Treated plants and controls were maintained in a greenhouse for 13 to 15 d, after which time all species were compared to controls and visually evaluated. Plant response ratings, summarized in Table B, are based on a scale of 0 to 100 where 0 is no effect and 100 is complete control. A dash (-) response means no test result.

[17] = test system: ducksalad (Heteranthera limosa); assay: Test B flooded paddy test; details: Flood, 250 g ai/ha; 0 to 100 scale where 0 is no effect and 100 is complete control; 13 to 15 d
Protocol: as §3

rice (Oryra sativa) = assay: Test B flooded paddy test; details: Flood, 250 g ai/ha; 0 to 100 scale where 0 is no effect and 100 is complete control; 13 to 15 d
Protocol: as §3

[18] = test system: sedge, umbrella (small-flower umbrella sedge, Cyperus difformis); assay: Test B flooded paddy test; details: Flood, 250 g ai/ha; 0 to 100 scale where 0 is no effect and 100 is complete control; 13 to 15 d
Protocol: as §3

[19] = 500 g ai/ha, postemergence, 0 to 100 scale, 0 no effect, 100 complete control
[20] = Postemergence, 125 g ai/ha, visual injury, 0 to 100 scale (0 no effect, 100 complete control), approx. 10 d

SMILES	Plant response rating, Kochia (Kochia (Kochia scoparia) [1])	Kochia plant response rating (0 to 100 scale) (Kochia (Kochia scoparia) [1])	Plant response rating, Barnyardgrass [2]	Barnyardgrass plant response rating (0 to 100 scale) [2]	Plant response rating, Foxtail, Giant [3]	Foxtail, Giant plant response rating (0 to 100 scale) [3]	Plant response rating, Pigweed [4]	Pigweed plant response rating (0 to 100 scale) [4]	Plant response rating, Ragweed [5]	Ragweed plant response rating (0 to 100 scale) [5]	Plant response rating, Ryegrass, Italian [6]	Ryegrass, Italian plant response rating (0 to 100 scale) [6]	Plant response rating, Galium [7, 19]	Plant response rating, Galium [7, 20]	Plant response rating, Kochia (Kochia (Kochia scoparia) [8]; [19])	Plant response rating, Kochia (Kochia (Kochia scoparia) [8]; [20])	Plant response rating, Barnyardgrass [9, 19]	Plant response rating, Barnyardgrass [9, 20]	Plant response rating, Blackgrass [10, 19]	Plant response rating, Blackgrass [10, 20]	other results
CC(C)Oc1cccc(C2CNC(=O)C2C(=O)Nc2ccc(F)cc2F)c1 (racemic) [Compound 377]	50	80	90	90	90	90	50	70	0	0	20	60	70	60	60	30	90	90	70	50	Plant response rating, Corn (corn (Zea mays); [19]): 50; Plant response rating, Corn (corn (Zea mays); [20]): 0; Plant response rating, Foxtail, Giant [11, 19]: 80; Plant response rating, Foxtail, Giant [11, 20]: 80; Plant response rating, Pigweed [12, 19]: 30; Plant response rating, Pigweed [12, 20]: 0; Plant response rating, Ragweed [13, 19]: 60; Plant response rating, Ragweed [13, 20]: 40; Plant response rating, Ryegrass, Italian [14, 19]: 50; Plant response rating, Ryegrass, Italian [14, 20]: 30; Plant response rating, Wheat [15, 19]: 50; Plant response rating, Wheat [15, 20]: 0; Plant response rating, Barnyardgrass [16]: 60; Plant response rating, Ducksalad [17]: 100; Plant response rating, Rice (rice (Oryra sativa)): 25; Plant response rating, Sedge, Umbrella [18]: 0
CCCOc1cccc(C2CNC(=O)C2C(=O)Nc2cccc(F)c2F)c1 (racemic) [Compound 380]	0	40	70	90	50	90	0	30	0	0	0	20	50	20	0	0	80	50	40	30	Plant response rating, Corn (corn (Zea mays); [19]): 0; Plant response rating, Corn (corn (Zea mays); [20]): 0; Plant response rating, Foxtail, Giant [11, 19]: 70; Plant response rating, Foxtail, Giant [11, 20]: 30; Plant response rating, Pigweed [12, 19]: 0; Plant response rating, Pigweed [12, 20]: 0; Plant response rating, Ragweed [13, 19]: 0; Plant response rating, Ragweed [13, 20]: 0; Plant response rating, Ryegrass, Italian [14, 19]: 0; Plant response rating, Ryegrass, Italian [14, 20]: 0; Plant response rating, Wheat [15, 19]: 20; Plant response rating, Wheat [15, 20]: 0; Plant response rating, Barnyardgrass [16]: 0; Plant response rating, Ducksalad [17]: 0; Plant response rating, Rice (rice (Oryra sativa)): 0; Plant response rating, Sedge, Umbrella [18]: 0
